The conditions of the data set: Liquid.
[1] abbreviates: 312.59 K, Closed cell (Static) method.

A word on the vapor or sublimation pressure: it is the equilibrium pressure above the liquid or solid.

± gives the expanded uncertainty stated by the source.

For `C=CCC` [1-butene], under setting [1], the “vapor or sublimation pressure” value was 448.3 ± 3.2 kPa.
With `CCOC(C)(C)C` [2-ethoxy-2-methylpropane], the “vapor or sublimation pressure” value (312.83 K, Ebulliometric method (Recirculating still)) was found to be 30.95 ± 0.33 kPa; the “vapor or sublimation pressure” value (312.84 K, Closed cell (Static) method) worked out at 31.9 ± 2.8 kPa; the “vapor or sublimation pressure” value (330.44 K, Ebulliometric method (Recirculating still)) is on record as 60.25 ± 0.34 kPa; the “vapor or sublimation pressure” value (338.77 K, Ebulliometric method (Recirculating still)) is recorded as 80.14 ± 0.38 kPa; the “vapor or sublimation pressure” value (343.01 K, Ebulliometric method (Recirculating still)) amounted to 92 ± 0.42 kPa; the “vapor or sublimation pressure” value (346.26 K, Ebulliometric method (Recirculating still)) is on record as 102.08 ± 0.43 kPa. Besides, the “vapor or sublimation pressure” value (358.31 K, Closed cell (Static) method) was 147.9 ± 2.8 kPa.
For the compound `CC(C)C` [2-methylpropane], the “vapor or sublimation pressure” value (307.79 K, Closed cell (Static) method) is given as 460.8 ± 3.2 kPa.
`C=C(C)C` [2-methylpropene]: under setting [1], the “vapor or sublimation pressure” value came out at 467.1 ± 3.2 kPa.
For the compound `CCCC` [butane], the “vapor or sublimation pressure” value (322.01 K, Closed cell (Static) method) was determined as 479.5 ± 3.2 kPa.
For the compound `CCC#N` [propanenitrile], the “vapor or sublimation pressure” value is recorded as 9.47 ± 2.8 kPa (307.78 K, Closed cell (Static) method); 11.9 ± 2.8 kPa (312.5 K, Closed cell (Static) method); 11.9 ± 2.8 kPa (312.58 K, Closed cell (Static) method); 12.5 ± 2.8 kPa (313.15 K, Closed cell (Static) method); 12.72 ± 0.29 kPa (313.15 K, Ebulliometric method (Recirculating still)); 17.4 ± 2.8 kPa (322 K, Closed cell (Static) method). Besides, the “vapor or sublimation pressure” value (339.57 K, Ebulliometric method (Recirculating still)) amounted to 36.51 ± 0.3 kPa; the “vapor or sublimation pressure” value (353.83 K, Ebulliometric method (Recirculating still)) is on record as 60.04 ± 0.33 kPa; the “vapor or sublimation pressure” value (358.33 K, Closed cell (Static) method) stood at 69.6 ± 2.8 kPa; the “vapor or sublimation pressure” value (358.37 K, Ebulliometric method (Recirculating still)) stood at 69.81 ± 0.36 kPa; the “vapor or sublimation pressure” value (364.8 K, Ebulliometric method (Recirculating still)) is on record as 85.5 ± 0.39 kPa; the “vapor or sublimation pressure” value (370.9 K, Ebulliometric method (Recirculating still)) came to 103.12 ± 0.4 kPa.

(Values after the NIST ThermoML archive (doi:10.1016/j.fluid.2010.09.023).)
